PubChem BioAssay (NCI)
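48-hour exposure; five concentrations; linearly interpolated endpoints. GI50: concentration for 50% inhibition of growth. TGI: concentration producing complete growth inhibition.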

Key:
Assay in all cases: DTP human tumour cell line panel, 48 h
[1] = tested on: MOLT-4 leukemia
[2] = tested on: EKVX NSCLC
[3] = tested on: HT29 colon
[4] = tested on: NCI/ADR-RES ovarian
[5] = tested on: CAKI-1 renal
[6] = tested on: SR leukemia
[7] = tested on: HCT-15 colon
[8] = tested on: TK-10 renal
[9] = tested on: NCI-H23 lung
[10] = tested on: K-562 leukemia
[11] = tested on: OVCAR-5 ovarian
[12] = tested on: SK-OV-3 ovarian
[13] = tested on: HOP-62 NSCLC
[14] = tested on: SF-295 CNS
[15] = tested on: SK-MEL-28 melanoma
[16] = tested on: HOP-92 NSCLC
[17] = tested on: U251 CNS
[18] = tested on: OVCAR-4 ovarian
[19] = tested on: HCC-2998 colon
[20] = tested on: A498 renal
[21] = tested on: T-47D breast
[22] = tested on: A549 NSCLC
[23] = tested on: MALME-3M melanoma
[24] = tested on: MCF7 breast
[25] = tested on: RXF 393 renal
[26] = tested on: KM12 colon
[27] = tested on: UO-31 renal
[28] = tested on: M14 melanoma
[29] = tested on: MDA-MB-435
[30] = tested on: BT-549 breast
[31] = tested on: LOX IMVI melanoma
[32] = tested on: ACHN renal
[33] = tested on: HS 578T breast
[34] = tested on: SF-268 CNS
[35] = tested on: NCI-H226 lung
[36] = tested on: SW-620 colon
[37] = tested on: NCI-H460 lung
[38] = tested on: NCI-H522 lung
[39] = tested on: IGROV1 ovarian
[40] = tested on: OVCAR-8 ovarian
[41] = tested on: UACC-62 melanoma
[42] = tested on: DU-145 prostate
[43] = tested on: SK-MEL-2 melanoma
[44] = tested on: HL-60(TB) leukemia
[45] = tested on: SF-539 CNS
[46] = tested on: COLO 205 colon
[47] = tested on: SNB-75 CNS
[48] = tested on: SNB-19 CNS
[49] = tested on: MDA-MB-231 breast
[50] = tested on: 786-0 renal
[51] = tested on: UACC-257 melanoma
[52] = tested on: OVCAR-3 ovarian
[53] = tested on: RPMI-8226 leukemia
[54] = tested on: SN12C renal
[55] = tested on: SK-MEL-5 melanoma

## O=S(=O)(NCCNc1nccc(-c2c(-c3ccc(F)c(O)c3)nc3sccn23)n1)c1ccc(F)cc1
[1]
  GI50: 2.71 µM
  TGI: 12.9 µM
[2]
  GI50: 5.42 µM
  TGI: 60.6 µM
[3]
  GI50: 4.19 µM
  TGI: 31.1 µM
[4]
  GI50: 8.5 µM
  TGI: > 100 µM
[5]
  GI50: 4.02 µM
  TGI: 31.6 µM
[6]
  GI50: 1.34 µM
  TGI: > 100 µM
[7]
  GI50: 3.25 µM
  TGI: 52.6 µM
[8]
  GI50: 16.2 µM
  TGI: 96.7 µM
[9]
  GI50: 4.07 µM
  TGI: 22.4 µM
[10]
  GI50: 2.55 µM
  TGI: > 100 µM
[11]
  GI50: 4.37 µM
  TGI: 85.7 µM
[12]
  GI50: 4.28 µM
  TGI: 75.7 µM
[13]
  GI50: 5.09 µM
  TGI: 74.4 µM
[14]
  GI50: 3.41 µM
  TGI: 39.7 µM
[15]
  GI50: 0.429 µM
  TGI: 21.9 µM
[16]
  GI50: 1.3 µM
  TGI: 6.86 µM
[17]
  GI50: 4.75 µM
  TGI: > 100 µM
[18]
  GI50: 3.9 µM
  TGI: 14.7 µM
[19]
  GI50: 4.45 µM
  TGI: 17.2 µM
[20]
  GI50: 5.72 µM
  TGI: 18.2 µM
[21]
  GI50: 5.02 µM
  TGI: 28 µM
[22]
  GI50: 3.63 µM
  TGI: 58 µM
[23]
  GI50: 0.232 µM
  TGI: 1.37 µM
[24]
  GI50: 2.17 µM
  TGI: 12.2 µM
[25]
  GI50: 2.17 µM
  TGI: 5.46 µM
[26]
  GI50: 2.89 µM
  TGI: 14.6 µM
[27]
  GI50: 4.02 µM
  TGI: 15.1 µM
[28]
  GI50: 0.364 µM
  TGI: 16.5 µM
[29]
  GI50: 0.824 µM
  TGI: 4.99 µM
[30]
  GI50: 2.99 µM
  TGI: 23.4 µM
[31]
  GI50: 0.675 µM
  TGI: 18 µM
[32]
  GI50: 2.58 µM
  TGI: 28.5 µM
[33]
  GI50: 2.94 µM
  TGI: 8.81 µM
[34]
  GI50: 4.71 µM
  TGI: > 100 µM
[35]
  GI50: 4.01 µM
  TGI: 20.4 µM
[36]
  GI50: 5.22 µM
  TGI: 30.4 µM
[37]
  GI50: 3.43 µM
  TGI: 17.2 µM
[38]
  GI50: 3.31 µM
  TGI: 19.2 µM
[39]
  GI50: 2.43 µM
  TGI: 7.96 µM
[40]
  GI50: 4.25 µM
  TGI: 48 µM
[41]
  GI50: 0.587 µM
  TGI: 9.82 µM
[42]
  GI50: 3.47 µM
  TGI: 29.2 µM
[43]
  GI50: 1.87 µM
  TGI: 12.9 µM
[44]
  GI50: 2.14 µM
  TGI: 6.09 µM
[45]
  GI50: 4.54 µM
  TGI: 25.3 µM
[46]
  GI50: 5.62 µM
  TGI: 36.1 µM
[47]
  GI50: 1.55 µM
  TGI: 8.81 µM
[48]
  GI50: 4.26 µM
  TGI: > 100 µM
[49]
  GI50: 2.23 µM
  TGI: > 100 µM
[50]
  GI50: 3.21 µM
  TGI: > 100 µM
[51]
  GI50: 1.71 µM
  TGI: 18.3 µM
[52]
  GI50: 4.09 µM
  TGI: 59.5 µM
[53]
  GI50: 1.78 µM
  TGI: 4.24 µM
[54]
  GI50: 2.83 µM
  TGI: 71.5 µM
[55]
  GI50: 1.52 µM
  TGI: 2.98 µM
